In patent US20110218143A1, “COMPOSITIONS AND METHODS FOR TISSUE REPAIR” (UNIVERSITY OF FLORIDA RESEARCH FOUNDATION, priority 2007, published 2011):
Entries after “also recorded” stand apart in the source; their conditions may differ.

Tests used:
Type in all cases: in vivo, C57BL6/J mice
[1] = system: cytokine production in mouse blood; assay: Cytokine/chemokine levels in blood serum (Millipore 21-Plex, Luminex)
Protocol: Mice received either a placebo, celastrol (3.0 mg/kg), or 17-AAG (10 mg/kg) by intraperitoneal injection. Blood samples were taken from all groups of mice at 0, 1, 3, 6, 24, 48, and 72 hours after administration of the placebo, celastrol, or 17-AAG. The blood samples were analyzed for cytokine production, including the production of granulocyte-macrophage colony-stimulating factor (GM-CSF), interferon-gamma (IFN-γ), interleukin-10 (IL-10), interleukin-12 subunit beta (IL-12p40), interleukin-12 heterodimer (IL-12p70), interleukin-12 homodimer (IL-12p80), vascular endothelial growth factor (VEGF), tumor necrosis factor-alpha (TNF-α), keratinocyte derived chemokine (KC), RANTES (Regulated upon Activation, Normal T-cell Expressed, and Secreted; CCL5), monocyte chemotactic protein-1 (MCP 1), macrophage inflammatory protein (MIP1β; CCL4), interleukin-4 (IL-4), interleukin-3 (IL-3), interleukin-2 (IL-2), interleukin-1 beta (IL-1β), interleukin-1 alpha (IL-1α), interleukin-9 (IL-9), interleukin-13 (IL-13), interleukin-17 (IL-17), interleukin-6 (IL-6), and interleukin-5 (IL-5). Blood serum was analyzed using a commercially available kit (e.g., Mouse cytokine/chemokine panel: 21-Plex; Millipore). Blood serum (50 μl) was assayed in duplicate using a commercially available cytokine/chemokine detection kit from Millipore following the protocol given with the product information. The final measurement was performed using a commercially available detector (e.g., computer-operated Luminex 100 IS system) and the results were expressed as pg/ml blood serum sample. Levels of cytokines in blood were quantitated as a concentration of the total volume of the sample.

[2] = system: stem cell populations in bone marrow (cd34+, cd45+, Sca-1+ cells); assay: FACS of cells expressing stem cell markers CD34, CD45, Sca-1 in bone marrow samples; conditions: 24 hours post treatment
Protocol: (§1) Mice received either a placebo (PBS) or oridonin (3.0 mg/kg) by intraperitoneal injection.

[3] = system: stem cell populations in blood (cd34+, cd45+, Sca-1+ cells); assay: FACS of cells expressing stem cell markers CD34, CD45, Sca-1 in blood samples
Protocol: Mice received either a placebo or triptolide (400 μg/kg) by intraperitoneal injection.
Celastrol analogs administered included dihydrocelastrol, dihydrocelastrol diacetate, and pristimerol (dihydropristimerin). Mice received either a placebo or a celastrol analog (3.0 mg/kg) by intraperitoneal injection.
as §1

[4] = i.p. celastrol 3.0 mg/kg or 17-AAG 10 mg/kg, 72 hour time course
[5] = i.p. celastrol 3.0 mg/kg or 17-AAG 10 mg/kg, sampled 0-72 h
[6] = i.p. celastrol 3.0 mg/kg or 17-AAG 10 mg/kg, sampled 0-72 h, vs placebo control
[7] = celastrol analog 3.0 mg/kg i.p.
[8] = celastrol analog 3.0 mg/kg i.p., 24 hours post treatment (so in the source)
[9] = oridonin 3.0 mg/kg i.p., 48 hours post treatment

Question: What does the source list for `C=CCNC1=C2C[C@@H](C)C[C@H](OC)[C@H](O)[C@@H](C)/C=C(\C)[C@H](OC(N)=O)[C@@H](OC)/C=C\C=C(/C)C(=O)NC(=CC1=O)C2=O` [Formula 17-AAG, 17-allylamino-17-demethoxygeldanamycin]?
Answer: level of TNF-α compared to placebo control ([1]; 17-AAG 10 mg/kg i.p., by 24 hours post treatment): declined below levels seen in the placebo control; level of MCP1 compared to placebo control ([1]; 17-AAG 10 mg/kg i.p., over the course of the experiment): not significantly different; level of IL-17 compared to placebo control ([1]; i.p. celastrol 3.0 mg/kg (throughout 72 hours) or 17-AAG 10 mg/kg (up to 48 hours)): consistently high; level of IFN-γ compared to placebo control [1, 4]: remained elevated up to 72 hours; level of IL-1β compared to placebo control [1, 4]: remained elevated up to 72 hours; level of IL-3 compared to placebo control [1, 4]: remained elevated up to 72 hours; level of IL-4 compared to placebo control [1, 4]: remained elevated up to 72 hours; level of IL-5 compared to placebo control [1, 4]: remained elevated up to 72 hours; level of IL-10 compared to placebo control [1, 4]: remained elevated up to 72 hours; also recorded: had risen again by 72 hours; level of IL-12p40 compared to placebo control [1, 4]: elevated again at 24 hours; level of IL-12p70 compared to placebo control [1, 4]: remained elevated up to 72 hours; level of IL-12p80 compared to placebo control [1, 4]: remained elevated up to 72 hours; time by which GM-CSF (elevated pre treatment) declined to placebo control levels [1, 5]: ≤ 6 h; time by which IL-1α returned to levels seen in the placebo control [1, 5]: ≤ 24 h; time by which IL-2 returned to levels seen in the placebo control [1, 5]: ≤ 6 h; time by which IL-6 returned to levels seen in the placebo control [1, 5]: ≤ 24 h; time by which IL-9 (elevated pre treatment) declined to placebo control levels [1, 5]: ≤ 6 h; time by which IL-13 returned to levels seen in the placebo control [1, 5]: ≤ 6 h; time by which KC returned to levels seen in the placebo control [1, 5]: ≤ 24 h; time by which MIP1β returned or declined to placebo control levels [1, 5]: ≤ 6 h; time by which RANTES returned to levels seen in the placebo control [1, 5]: up to 72 hours; time by which VEGF returned to levels seen in the placebo control [1, 5]: ≤ 6 h; time of peak level of IFN-γ post treatment [1, 6]: around 24 hours; time of peak level of IL-1α post treatment [1, 6]: around 6 hours; time of peak level of IL-1β post treatment [1, 6]: around 24 hours; time of peak level of IL-2 post treatment [1, 6]: around 3 hours; time of peak level of IL-3 post treatment [1, 6]: around 24 hours; time of peak level of IL-4 post treatment [1, 6]: around 24 hours; time of peak level of IL-5 post treatment [1, 6]: around 24 hours; time of peak level of IL-6 post treatment [1, 6]: around 6 hours; time of peak level of IL-10 post treatment [1, 6]: around 24 hours; time of peak level of IL-12p70 post treatment [1, 6]: around 24 hours; time of peak level of IL-12p80 post treatment [1, 6]: around 24 hours; time of peak level of IL-13 post treatment [1, 6]: around 3 hours; time of peak level of KC post treatment [1, 6]: around 6 hours; time of peak level of MCP1 post treatment [1, 6]: around 24 hours; time of peak level of MIP1β post treatment [1, 6]: around 3 hours; time of peak level of RANTES post treatment [1, 6]: around 48 hours; time of peak level of TNF-α post treatment [1, 6]: around 3 hours; time of peak level of VEGF post treatment [1, 6]: around 3 hours

Question: What does the source list for `COC(=O)[C@]1(C)CC[C@]2(C)CC[C@]3(C)C4=CCc5c(cc(O)c(O)c5C)[C@]4(C)CC[C@@]3(C)[C@@H]2C1` [pristimerol]?
Answer: Sca-1+ cells, percent of the population of bone marrow cells [2, 7]: about 0.28%; cd34+ cells, percent of the population of bone marrow cells [2, 7]: about 0.28%; cd45+ cells, percent of the population of bone marrow cells [2, 7]: about 0.16%; fold increase of percentage of Sca-1+ cells in bone marrow over control [2, 7]: 4-5 fold; fold increase of percentage of cd34+ cells in bone marrow over control [2, 7]: greater than 4 fold; fold increase of percentage of cd45+ cells in bone marrow over control [2, 7]: greater than 5 fold; Sca-1+ cells, percent of the population of blood cells [3, 8]: about 0.25%; cd34+ cells, percent of the population of blood cells [3, 8]: about 0.4%; cd45+ cells, percent of the population of blood cells [3, 8]: about 0.06%; fold increase of percentage of Sca-1+ cells in blood over control [3, 8]: ~6 fold; fold increase of percentage of cd34+ cells in blood over control [3, 8]: ~3 fold; fold increase of percentage of cd45+ cells in blood over control [3, 8]: ~3 fold

Question: What does the source list for `C=C1C(=O)[C@]23[C@H](O)[C@H]1CC[C@H]2[C@@]12CO[C@]3(O)[C@@H](O)[C@@H]1C(C)(C)CC[C@@H]2O` [oridonin]?
Answer: CD34 cells, percent of the population of bone marrow cells ([2]; oridonin 3.0 mg/kg i.p.): greater than 0.5%; Sca-1+ cells, percent of the population of bone marrow cells ([2]; oridonin 3.0 mg/kg i.p.): about 0.5%; fold increase of percentage of Sca-1+ cells in bone marrow over control ([2]; oridonin 3.0 mg/kg i.p.): ≥ 10 fold; fold increase of percentage of cd34+ cells in bone marrow over control ([2]; oridonin 3.0 mg/kg i.p.): ≥ 10 fold; Sca-1+ cells, percent of the population of blood cells [3, 9]: 0.14%; cd34+ cells, percent of the population of blood cells [3, 9]: approximately 0.18%; fold increase of percentage of Sca-1+ cells in blood over control [3, 9]: ~1.4 fold; fold increase of percentage of cd34+ cells in blood over control [3, 9]: ~1.8 fold

Question: Which results are given for `Cc1c(O)c(O)cc2c1CC=C1[C@@]2(C)CC[C@@]2(C)[C@@H]3C[C@](C)(C(=O)O)CC[C@]3(C)CC[C@]12C` [dihydrocelastrol]?
Answer: Sca-1+ cells, percent of the population of bone marrow cells [2, 7]: 0.14%; cd34+ cells, percent of the population of bone marrow cells [2, 7]: 0.15%; cd45+ cells, percent of the population of bone marrow cells [2, 7]: 0.04%; change of percentage of cd45+ cells in bone marrow compared to untreated control [2, 7]: slight increase; fold increase of percentage of Sca-1+ cells in bone marrow over control [2, 7]: ~3 fold; fold increase of percentage of cd34+ cells in bone marrow over control [2, 7]: ~3 fold; Sca-1+ cells, percent of the population of blood cells [3, 8]: 0.4%; cd34+ cells, percent of the population of blood cells [3, 8]: approximately 0.6%; cd45+ cells, percent of the population of blood cells [3, 8]: about 0.19%; fold increase of percentage of Sca-1+ cells in blood over control [3, 8]: ~10 fold; fold increase of percentage of cd34+ cells in blood over control [3, 8]: ~4 fold; fold increase of percentage of cd45+ cells in blood over control [3, 8]: ~10 fold

Question: Which results are given for dihydrocelastrol diacetate?
Answer: Sca-1+ cells, percent of the population of bone marrow cells [2, 7]: about 0.17%; cd34+ cells, percent of the population of bone marrow cells [2, 7]: 0.15%; change of percentage of cd45+ cells in bone marrow compared to untreated control [2, 7]: decrease; fold increase of percentage of Sca-1+ cells in bone marrow over control [2, 7]: ~3 fold; fold increase of percentage of cd34+ cells in bone marrow over control [2, 7]: ~3 fold; Sca-1+ cells, percent of the population of blood cells [3, 8]: about 1.4%; cd34+ cells, percent of the population of blood cells [3, 8]: 1.5%; cd45+ cells, percent of the population of blood cells [3, 8]: about 0.4%; fold increase of percentage of Sca-1+ cells in blood over control [3, 8]: ~36 fold; fold increase of percentage of cd34+ cells in blood over control [3, 8]: ~10 fold; fold increase of percentage of cd45+ cells in blood over control [3, 8]: ~20 fold
